Assay results: patent US20120010229A1, “THERAPEUTIC REGIMENS FOR HEDGEHOG-ASSOCIATED CANCERS” (priority 2010, published 2012)

Experiments:
[1] = tested on: LuCaP35V (Castration Resistant) primary prostate cancer; assay: LuCaP35V castration resistant primary prostate cancer model; assay type: in vivo
Description: The effects of IPI-926 were examined following docetaxel chemotherapy in a model of castration resistant prostate cancer. Prostate cancer is known to be a highly desmoplastic cancer, and one that preferentially metastasizes to bone. Sonic hedgehog ligand is expressed in clinical specimens and primary xenograft models. […] FIG. 7 summarizes the effects of IPI-926 in LuCaP35V (Castration Resistant) primary prostate cancer model. Days of docetaxel and IPI-926 administration are indicated by the arrowheads at the indicated days post-implant. The following samples were tested: Vehicle control (administered orally once a day), 40 mg/kg of IPI-926 (administered orally once a day), docetaxel (administered intravenously Q14D for 28 days), or docetaxel (administered intravenously Q14D for 28 days) followed by 40 mg/kg of IPI-926, as shown in FIG. 7. […] Thus, IPI-926 can be useful as maintenance therapy in prostate cancer.

H1650 xenograft = assay: H1650 mutant EGFR non-small cell lung cancer xenograft, post Gefitinib; assay type: in vivo
Protocol: The efficacy of IPI-926 was evaluated when applied as a maintenance therapy following treatment of a xenograft non-small cell lung cancer model with a tyrosine kinase inhibitor. […] Sonic hedgehog ligand is detected by immunohistochemical staining (IHC) of sections of non-small cell lung cancer (FIG. 8A).

[2] = tested on: L3.6pl P-lucky liver metastasis; assay: L3.6pl liver metastasis model, Study #2; assay type: in vivo
Protocol: Model Procedure: Animals were anesthetized and prepared for surgery. The animal's spleen was exposed and 100 μl (1 million cells) of the L3.6pl single cell suspension was injected directly in the spleen towards the splenic vein (intra splenic injection). Once the injection was complete, the splenic artery and splenic vein were ligated, the spleen was excised, and the animals' wounds were closed. Post-op care and analgesia was given for 4 consecutive days and animals were monitored for recovery.
Prior to the procedure listed above 48 animals were separated into […].
Animals in group 2 (Day-of-Treatment), received IPI-926 every-other-day beginning on the day of the intra splenic injection procedure, continuing until the study end.
Animals in group 3 (Pre-Treatment Day −2), received IPI-926 every-other-day starting two days prior to the day of the intra splenic injection procedure, continuing until the study end.
Animals in group 4 (Pre-Treatment Day −7), received IPI-926 every-other-day starting seven days prior to the day of the intra splenic injection procedure, continuing until the study end.
Animals in group 5 (Pre-Treatment Day −14—treatment stopped on Day 0), received IPI-926 every-other-day starting fourteen days prior to the day of the intra splenic injection procedure and ending on the day of implant.
Animals in group 6 (Pre-Treatment Day −14), received IPI-926 every-other-day starting fourteen days prior to the day of the intra splenic injection procedure, continuing until the study end.
Results Procedure: Animals were injected with 10 ml/kg of luciferin concentrated at […] via I.P. injection. This luciferin binds to the L3.6pl P-Lucky cells injected on day 0. Utilizing Calipers Xenogen© machine, this cell-luciferin association emits bioluminescence that can be read and quantified.
Results: FIGS. 12A-12B represent the results from the quantification, normalized on each day to the average of vehicle treated animals. This normalization was done using the formula: (1/(average flux of vehicle animals/average flux of group X (group being compared))).

[3] = tested on: Smoothened bearing the A1 point mutation; assay: Shh pathway inhibition in Smo/Smo (SmoA1) mouse medulloblastoma; assay type: in vivo
Description: Two mouse medulloblastoma models were considered for these studies. In the Smo/Smo model, the constitutively active Smoothened (SmoA1) transgene is driven by a fragment of the mouse NeuroD2 promoter (Hallahan et al., (2004) Cancer Research 64: 7794-7800). Over 90% of Smo/Smo mice develop subclinical, localized medulloblastomas by one month of age and they typically become symptomatic and moribund 3-5 months later (Hatton et al., (2008) Cancer Research 68: 1768-1776). In this model, Smoothened is activated by a W539L point mutation (SmoA1) in the seventh transmembrane domain (Xie et al. (1998) Nature 391: 90-92; Taipale et al., (2000) Nature 406:1005-1009). While this model is ideal for many pre-clinical medulloblastoma therapeutic trials, it was previously reported that the introduced SmoA1 point mutation reduced the affinity of cyclopamine for Smoothened in tissue culture cells (Taipale et al., (2000) Nature 406:1005-1009). Tests were performed to determine whether doses of IPI-926 that were effective in other mouse model studies were sufficient to block the Shh pathway in Smo/Smo mouse tumors. […] Therefore, a different medulloblastoma model was used.

[4] = mouse, in vivo
Protocol: IPI-926 drug levels in tumor and brain samples were determined as described previously (Olive et al., (2009) Science 324: 1457-1461). Briefly, samples were homogenized in 4 volumes of CAN:PBS buffer and homogenized using a Geno/Grinder from SPEX CertiPrep (Metuchen, N.J.) for 2 minutes. Homogenates were then filtered using […] low binding hydrophilic multiscreen solvinert late (Millipore) and collected in a 96-well plate. The tissue filtrates were diluted 1:1 and IPI-926 levels were determined. Sample analysis was performed on an Agilent 1200 from Agilent Technologies (Santa Clara, Calif.) coupled with an API-4000 mass spectrometer from Applied Biosystems (Foster City, Calif.) for detection. Data were acquired and processed using the software Analyst 1.4.1 (Applied Biosystems). Sample concentrations, as measured by their peak area ratios (analyte divided by internal standard), were determined from the calibration curves.

L3.6pl xenografts = details: with paclitaxel bonded to albumin (Abraxane)
[5] = in vivo, cited from earlier work
[6] = tested on: KPC mice pancreatic tumors; details: combination of IPI-926 and Gemcitabine; cited from earlier work
[7] = tested on: human cell lines derived from patients with cancer; details: pancreatic cancer, medulloblastoma, lung cancer, multiple myeloma, leukemia, lymphoma lines; cited from earlier work

## CC1=C2C[C@H]3[C@@H](CC[C@@H]4C[C@H](NS(C)(=O)=O)CC[C@@]43C)[C@@H]2CC[C@@]2(C1)O[C@@H]1C[C@H](C)CN[C@H]1[C@H]2C [IPI-926]
[1]; 40 mg/kg orally once a day
  tumor volume, IPI-926 alone: marked increase in tumor volume
[1]; docetaxel IV Q14D for 28 days followed by 40 mg/kg IPI-926
  tumor volume after cessation of docetaxel chemotherapy: prolonged duration of the tumor inhibition
H1650 xenograft; Gefitinib 40 mg/kg orally one week followed by IPI-926 once a day for three weeks
  tumor volume after cessation of Gefitinib: prolonged duration of the tumor inhibition
H1650 xenograft; IPI-926 in combination with Gefitinib
  mGLI-1 mRNA expression in lung tumor samples: inhibit mGLI-1 mRNA expression
[2]; 2 days of pre treatment
  take or growth of metastasis within the liver: no effect
[2]; 7 days of pre-treatment
  overall survival vs vehicle: survival benefit
[2]; 14 days of pre-treatment then stopping
  overall survival vs vehicle: survival benefit
[2]; 14 days prior to implant then stopping dosing, early time point
  reduction in luminescence below vehicle: roughly 15 fold
[2]; 14 days prior to implant then stopping dosing, latest time point
  decrease in bioluminescence compared to vehicle: 5 fold
[2]; day of implant treatment
  take or growth of metastasis within the liver: no effect
[2]; pre-treatment beginning at day -2
  overall survival vs vehicle: limited survival benefits
[2]; treatment from 7 days prior to implant
  reduction in bioluminescence below vehicle: 10-15 fold
[2]; treatment from 14 days prior to implant
  increase of overall survival rate, factor: ≥ 2
[2]; treatment from 14 days prior to implant, continued
  reduction in flux (bioluminescence) below vehicle: 20-25 fold
[2]; treatment starting on the day of implant, day 0
  overall survival vs vehicle: no benefit
[3]; Smo/Smo mouse model
  proliferation or apoptosis: no detectable effect
[3]; Smo/Smo mouse tumors
  expression of Gli1: unaffected
[4]
  blood brain barrier penetration: crossed the blood brain barrier
L3.6pl xenografts
  effect on therapeutic agent effect of Abraxane: enhances the therapeutic agent effect
[5]; po
  oral bioavailability: orally bioavailable
[5]
  duration of action: long duration of action
  plasma half-life: long plasma half-life
[6]
  intratumoral vascular density and gemcitabine concentration: transient increase in intratumoral vascular density and intratumoral concentration of gemcitabine
[7]
  in vitro growth of human cancer cell lines: inhibit in vitro growth
